“Also recorded” adds a separate entry of the source.
Key:
[1] = system: mouse maxillary first molars; assay: Reactionary dentine formation, non-exposed pulp injury model, Masson's Trichrome histology; settings: for Structure of reactionary dentine (histology): 4 weeks after injury without pulp exposure
Description: (§1) To investigate the effect of modulation of Wnt signaling on reactionary dentine formation, a reproducible tooth damage model was established. 6 weeks old, Axin2^−CreERT2; Rosa26−mTmG (fl/+) and GPR1777(Wntless)^−pCAGCreERT2 (fl/fl) mice were injected intraperitoneally with three doses of tamoxifen (2 mg per 30 g mouse, SIGMA), one dose a day. 5 days after the last tamoxifen injection, the height of the middle cusp of mouse maxillary first molars were reduced without exposing the dental pulp, leaving a band of dentine to protect the inner pulp tissue (FIG. 5).
The exposed dentine was capped either with calcium hydroxide (Dycal; Dentsply) or mineral trioxide aggregate (MTA) (ProRoot MTA; Dentsply), or dry collagen sponge (Kolspon-Fish Collage Type 1; Eucare Ltd), or collagen sponge soaked in dimethyl sulfoxide (DMSO; SIGMA), or 50 nM Tideglusib, or 1 μM LY2157299, or 1 μM Dorsomorphin. All drugs were dissolved and diluted in DMSO. A layer of glass ionomer cement (Ketac-Cem Radiopaque; 3M ESPE) was used as a sealing material. Vetergesic (Buprenorphine—Ceva) was injected to all mice post-operative at the rate of 0.3 mg/kg by intraperitoneal injection as analgesic. The animals were sacrificed after 1 day and 4 weeks. A total of 14 genetically-modified mice (28 damaged molars) and 26 CD1 mice (52 molars) were used.
After 4 weeks decalcification in 19% EDTA pH 6, the teeth were embedded in wax blocks and sectioned at 8 μm thickness. Sections were histologically stained using Masson's Trichrome.
Sequestered latent BMP and TGF-β proteins present in the dentine matrix have been implicated in tertiary dentine formation following damage, mainly based on results obtained from in vitro experiments. The effect of inhibition of these signalling pathways in was investigated in the in vivo model of reactionary dentine formation described in Example 5 by utilising small molecules to inhibit these signalling pathways. The small molecule LY2157299 is a TGF-β type I receptor kinase inhibitor and the small molecule Dorsomorphin is an inhibitor of BMP type I receptors ALK2, ALK3 and ALK6 (Bhola et al. 2013, Yu et al. 2008). Both compounds were first tested for cytotoxicity and effectiveness of signalling pathway blocking in vitro using 17IA4 cells. The first upper molars of CD1 mice were damaged to stimulate reactionary dentine formation and a collagen sponge was soaked in either 1 μM LY2157299 or 1 μM Dorsomorphin was used as a delivery vehicle. The sponges were placed on the exposed dentine and sealed with a layer of glass ionomer.

[2] = system: Axin2 (Wnt activity) in dental pulp cells; assay: Induction of Axin2 in vivo, pulp exposure injury model, qPCR of pulp cells; design: species or system mouse; settings: one day after injury and capping; vs control, MTA or collagen sponge
Description: A glass ionomer cement was used to cover the sponge and protect the tooth (FIG. 2G). Specifically, a layer of 3M Ketac-Cem Radiopaque was used as a capping material to seal the injured site. The injury was performed on the two upper first molars. Post-op the mice were given Vetergesic (Buprenorphine—Ceva) at the rate of 0.3 mg/kg intraperitonially as analgesic. The animals were sacrificed after 1 day.
Treated teeth were removed after 24 h along with controls consisting of untreated teeth, MTA only and collagen sponge with no inhibitor.
Molars were extracted using a 21G needle as an elevator to lift them from the alveolar bone and kept in ice cold PBS. Using a 23 scalpel blade the molars were separated at the crown-root junction, so that the pulp chamber could be visualized. Using a 0.6 mm straight tip tweezer the pulp was gently scraped from the pulp chamber and the root canal. The pulp was then placed into cold Sigma RNAlater and stored at −80° C.
The extracted cells were tested for expression of Axin2 by qPCR as described in Example 1 (FIG. 1E). Expression of Axin2 was 3× higher in inhibitor treated pulp cells when compared to controls (FIG. 1E).

[3] = system: mouse maxillary first molars; assay: Reactionary dentine formation, non-exposed pulp injury model, micro-CT mineral content and linear measurement; type: in vivo; settings: 50 nM, 4 weeks
Description: as §1
The exposed dentine was capped either with calcium hydroxide (Dycal; Dentsply) or mineral trioxide aggregate (MTA) (ProRoot MTA; Dentsply), or dry collagen sponge (Kolspon-Fish Collage Type 1; Eucare Ltd), or collagen sponge soaked in dimethyl sulfoxide (DMSO; SIGMA), or 50 nM Tideglusib, or 1 μM LY2157299, or 1 μM Dorsomorphin. All drugs were dissolved and diluted in DMSO. […]
Mice upper molars were dissected, fixed in 4% paraformaldehyde (PFA) for 24-hours at 4° C. and scanned using a Bruker Skyscan1272 micro-CT (pCT) scanner. […] The dentine thickness was measured using the “Line” function of the software. For the dentine thickness-analysis the distance between the center of the roof of the middle pulp horn and the floor of the injured dentine margin was measured. […] The region measured comprised only the site of injury. […]

[4] = system: Axin2 (Wnt activity) in dental pulp; assay: Axin2 qPCR of dental pulp one day after dentine injury without pulp exposure; type: in vivo, mouse
Description: All drugs were dissolved and diluted in DMSO.
(§2) Since Wnt/β-catenin signaling is required for reparative dentine formation we investigated if this pathway plays a role in reactionary dentine formation. The small molecule GSK3 antagonist Tideglusib was delivered on collagen sponges at the site of damage and sealed with glass ionomer. Sponge alone and MTA sealed with glass ionomer were used as controls. To identify whether cells responded to the drug, TCF/Lef:H2B-GFP, Axin2^−CreERT2; Rosa26−mTmG flox/+ and CD1 wild type mice were used. TCF/Lef:H2B-GFP reporter mice allowed the visualisation of Wnt active cells (ie. Cells receiving a Wnt signal), Axin2^−CreERT2; Rosa26−mTmG flox/+ mice were used to lineage trace Axin2-expressing cells and gene expression analysis via qPCR (as described in Example 1) was performed on pulp cells from CD1 mouse molars. The first molars of genetically modified mice were collected 1 day after the injury and immunohistochemistry was performed. Deparaffinised sections were retrieved with sodium citrate (pH 6) and incubated with chicken polyclonal anti-GFP antibody (1:500; Abcam, Cambridge, Mass., USA; ab13970) overnight at 4° C. Sections were washed and exposed to appropriate biotinylated secondary antibody, then horseradish peroxidase (HRP)-conjugated streptavidin-biotin antibody and washed with PBST. […]

[5] = system: mouse maxillary first molars; assay: Reparative dentine formation after pulp exposure, micro-CT mineral analysis; type: in vivo
Description: T filled with mineral=0.0017 mg.

[6] = system: mouse maxillary first molars; assay: Reparative dentine formation after pulp exposure, Masson's Trichrome histology
Description: (§3) To test the induction of Axin2 in vivo, an injury model was developed. Mice were anaesthetized with a solution of Hypnorm (Fentanyl/fluanisone—VetaPharma Ltd.), water and Hypnovel (Midazolam—Roche) in the ratio 1:2:1 at 10 ml/kg by an intraperitoneal injection. Experimental tooth damage was created by drilling and making 0.13 mm holes in mouse maxillary first molars to expose the pulp. A rounded carbide bur FG ¼ coupled to a high speed hand piece was used to access the dentine. Once the bur cut exposed the dentine, a 30G needle was used to penetrate the pulp.
(§4) In order to protect the pulp from external contamination and stimulate dentine repair, the injury was capped either with ProRoot Mineral Trioxide Aggregate (MTA) (Maillfer Dentsply), or Kolspon (Fish Collage Type 1—Eucare Ltd) alone, or in association with 50 nM BIO (SIGMA), 5 μM CHIR99021 (SIGMA), or 50 nM Tideglusib (SIGMA) dissolved and diluted in DMSO, in contact with the pulp. Pieces of Kolspon were cut to size and soaked in solutions of the three inhibitors before being physically placed into the holes, in contact with the pulp.
(§5) The model described in Example 2 was then used to examine the effect on the formation of reparative dentine. Molars were drilled and sponges inserted and left as described in Example 2, this time for 4-6 weeks before the mice were sacrificed.
(§6) After 4 weeks decalcification in 19% EDTA the teeth were embedded in wax blocks and sectioned using 0.8 μm thickness. Sections were stained using Masson's Trichrome to reveal new dentine formation.

[7] = system: TCF/Lef:H2B-GFP and Axin2-CreERT2 Wnt responsive cells; assay: GFP immunohistochemistry of Wnt responsive cells in reporter mice 1 day after injury; type: in vivo, mouse
Excerpt: as §2, with “PBST. Immunoreactivity was visualized with MenaPath green chromogen kit (Bio SB).” for “PBST.”

[8] = system: Axin2 (Wnt activity) in 171A4 mouse dental pulp cells; assay: In vitro drug release from Kolspon sponge, Axin2 qPCR; type: cell-based; settings: for Wnt activity (Axin2 qPCR): drug in collagen sponge incubated with cells, 50 nM BIO, 50 nM Tideglusib, vs media or sponge without drug
Description: In vitro drug release from Kolspon sponge was tested. 171A4 cells were plated in 24-well plates and incubated (37° C., 5% CO2/95% air, 100% humidity) for 24 h using standard culture medium. Falcon™ cell culture inserts for use with 24-well plates ([…]) were placed in the wells carrying 96 mm^2 Kolspon cubes either dry or soaked in 30 μl of the drug optimal concentration for 15 and 30 minutes, 1, 6, and 12 hours. The cells were collected with TRIzol and stored at −20° C.
RNA was extracted from the cells using TRIzol (Thermo Fisher Scientific) as recommended by the manufacturer. RNA was quantified using Nanodrop and reverse transcribed into cDNA. Beta-actin was used as housekeeping gene (Forward-[…] (SEQ ID NO 1), Reverse-[…]) (SEQ ID NO 2) and Axin2 for Wnt activity (Forward-[…] (SEQ ID NO 3), Reverse- TGCCCACACTAGGCTGACA (SEQ ID NO 4).

[9] = system: mouse maxillary first molars; settings: in vivo
Description: as §3, §4, §5, §6

[10] = system: human deciduous tooth dental pulp cells; settings: cited from earlier work

Compound	Structure of reactionary dentine (histology) [1]	Wnt activity / Axin2 expression (qPCR) in dental pulp cells [2]	Mineral band thickness at the site of injury (linear measurement) vs collagen sponge alone ([3]; FIG. 9E)	Mineral content under the injury site (micro-CT) ([3]; vs collagen sponge alone, FIG. 9D)	Wnt activity / early-response Axin2 expression (qPCR) ([4]; 1 day after injury without pulp exposure)	Axin2 expression compared to controls ([4]; 1 day after injury, FIG. 8E)	MicroCT appearance of injury site ([5]; 4 weeks)	MicroCT appearance of injury site ([5]; 6 weeks)	Histology of reparative dentine formation ([6]; 4 weeks)	Histology of reparative dentine formation ([6]; 6 weeks)	Amount of reactionary dentine formation (histology) compared with controls ([1]; 50 nM in collagen sponge, 4 weeks)	Pulp / tooth vitality ([1]; mouse, in vivo)	Axin2+ (GFP-positive) cells in the dental pulp ([7]; Axin2-CreERT2, Rosa26-mTmG mice, vs collagen sponge only)	Wnt responsive (TCF/LEF+, GFP) cells under the injury ([7]; TCF/Lef:H2B-GFP reporter mice, vs collagen sponge alone)	Wnt activity (Axin2 qPCR) [8]	Pulp vitality [9]	BIO induction of Axin2 expression relative to CHIR99021 and Tideglusib ([8]; FIG. 1D)	Differentiation state of dental pulp cells [10]	Proliferation of dental pulp cells [10]
Cc1cccc(-c2nn3c(c2-c2ccnc4ccc(C(N)=O)cc24)CCC3)n1 [LY2157299]	disorganised (globular) dentine; also recorded: atypical globular dentine without tubular reactionary dentine features	–	–	–	–	–	–	–	–	–	–	–	–	–	–	–	–	–	–
O=c1sn(-c2cccc3ccccc23)c(=O)n1Cc1ccccc1 [Tideglusib, 4-Benzyl-2—(naphthalen-1-yl)-[1,2,4]thiadiazolidine-3,5-dione]	normal tubular reactionary dentine formation	significant upregulation of Wnt activity	thicker mineral band	high mineral content; also recorded: increase of mature mineral formation	significant upregulation of Wnt activity	2 fold	mature mineral at the injury site	mature reparative dentine formed at the injury site almost at the same Radiopacity as the primary/secondary dentine	dense dentine formation at the injury site with vital pulp	filled the whole injury site from occlusal to pulp chamber roof; also recorded: complete repair with vital dental pulp	larger reactionary dentine secretion; also recorded: enhanced reactionary dentine formation	dental pulp remained vital	increase of TCF/LEF+cells and Axin2+ cells; also recorded: more GFP-positive cells	increase of TCF/LEF+cells; also recorded: increased local response to Wnt signalling	Wnt activity increases after 30 minutes of incubation and remains elevated	dental pulp remained vital	–	–	–
O=C1Nc2cc(Br)ccc2/C1=C1/Nc2ccccc2/C1=N\O [BIO, 6-bromoindirubin-3′-oxime]	–	significant upregulation of Wnt activity	–	–	–	–	mature mineral at the injury site	injury site filled with mature dentine	dense dentine formation at the injury site with vital pulp	filled the whole injury site from occlusal to pulp chamber roof; also recorded: new mature dentine formed where the sponge was placed filling the injury site	–	–	–	–	Wnt activity increases after 30 minutes of incubation and remains elevated	dental pulp remained vital	4 ×	maintain human deciduous tooth dental pulp cells in the undifferentiated state	reduce proliferation

— patent publication US20190247396A1, “DENTAL TREATMENT” (KING'S COLLEGE LONDON, priority 2016, published 2019)
